We go through two molecules from ChEMBL document CHEMBL4507298 (2021).

A word on the inhibition: it is the relative decrease from the control value, in per cent. Broadly, the Ki is the equilibrium dissociation constant of an inhibitor or competing ligand from its target.

Each structure is given as a SMILES string. Some results are limits rather than exact numbers.

In series [1] the target is Adenosine receptor A1 (Homo sapiens) (UniProt P30542). The series is described as follows: A1 (h) CEREP ligand profiling. Conditions: Compound concentration 10.0 uM; call rule not given here.
The target in series [2] is Urotensin-2 receptor (Homo sapiens) (UniProt Q9UKP6). The series is described as follows: UT (h) CEREP ligand profiling. Conditions: Compound concentration 10.0 uM.
The target in series [3] is Voltage-gated L-type calcium channel (DHP site) (Homo sapiens, UniProt O60840+Q01668+Q13698+Q13936). The series is described as follows: Ca2+ channel (L, DHP site) CEREP ligand profiling. Format: protein assay. To be noted: compound concentration 10 uM.
Series [4] addresses SRSF protein kinase 1 (Homo sapiens) (UniProt Q96SB4). To be noted: Compound concentration 1000.0 nM.
Series [5] addresses 5-hydroxytryptamine receptor 1B (Homo sapiens) (UniProt P28222). The series is described as follows: 5-HT1B CEREP ligand profiling. To be noted: Compound concentration 10.0 uM.
Series [6] concerns Tyrosine-protein kinase ABL1 (Homo sapiens), P00519 [Q252H]. To be noted: Compound concentration 1000.0 nM.
The target of series [7] is GABA-A receptor; anion channel (Homo sapiens) (UniProt P14867+P47870+P18507+P28472+P48169+Q99928+Q9UN88+P34903+O00591+O14764+Q8N1C3+P18505+P78334+P47869+P31644+Q16445). The series is described as follows: Cl- channel CEREP ligand profiling. Format: protein-complex assay. To be noted: Compound concentration 10.0 uM.
Series [8] has as its target Calcium/calmodulin-dependent protein kinase kinase 1 (Homo sapiens) (UniProt Q8N5S9). To be noted: Compound concentration 1000.0 nM.
In series [9] the target is Protein-tyrosine kinase 6 (Homo sapiens) (UniProt Q13882). To be noted: Compound concentration 1000.0 nM.
Series [10] addresses Mitogen-activated protein kinase kinase kinase 2 (Homo sapiens) (UniProt Q9Y2U5). Conditions: Compound concentration 1000.0 nM.
The target of series [11] is Cyclin-dependent kinase 2 homolog (Plasmodium falciparum (isolate 3D7)) (UniProt P61075). Conditions: Compound concentration 1000.0 nM.
The target of series [12] is Dual specificity mitogen-activated protein kinase kinase 4 (Homo sapiens) (UniProt P45985). To be noted: Compound concentration 1000.0 nM.
Series [13] deals with T1, Muscarinic acetylcholine receptor M5 (Homo sapiens) (UniProt P08912).
T1 sequence (whole entry): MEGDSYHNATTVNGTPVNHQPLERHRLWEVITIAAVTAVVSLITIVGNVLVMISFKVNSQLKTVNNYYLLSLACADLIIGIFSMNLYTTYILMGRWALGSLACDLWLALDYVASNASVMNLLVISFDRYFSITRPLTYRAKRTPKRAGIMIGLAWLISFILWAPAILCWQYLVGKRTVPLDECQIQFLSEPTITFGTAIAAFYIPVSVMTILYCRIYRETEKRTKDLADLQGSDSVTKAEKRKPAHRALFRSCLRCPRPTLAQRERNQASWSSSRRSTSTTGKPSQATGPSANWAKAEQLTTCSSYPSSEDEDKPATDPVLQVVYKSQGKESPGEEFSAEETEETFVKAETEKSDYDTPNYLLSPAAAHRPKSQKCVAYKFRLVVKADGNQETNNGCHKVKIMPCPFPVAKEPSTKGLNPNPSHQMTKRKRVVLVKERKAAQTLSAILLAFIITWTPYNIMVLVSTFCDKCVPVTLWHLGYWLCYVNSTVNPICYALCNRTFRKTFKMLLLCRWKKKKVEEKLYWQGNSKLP
The series is described as follows: M5 (h) CEREP ligand profiling. To be noted: Compound concentration 10.0 uM.

In series [14] the target is MAO-A (Amine oxidase [flavin-containing] A) (Homo sapiens, UniProt P21397). The series is described as follows: MAO-A CEREP ligand profiling. To be noted: compound concentration 10 uM.
The test system of series [15] is Receptor-type tyrosine-protein kinase FLT3 (Homo sapiens), P36888 [D835H]. Conditions: Compound concentration 1000.0 nM.
The target of series [16] is Sigma intracellular receptor 2 (Homo sapiens) (UniProt Q5BJF2). To be noted: Compound concentration 10.0 uM.
The target in series [17] is CYP2C9 (Homo sapiens, UniProt P11712). The series is described as follows: CYP2C9 inhibition CEREP ligand profiling. Conditions: compound concentration 10 uM.
The target in series [18] is Serine/threonine-protein kinase WNK4 (Homo sapiens) (UniProt Q96J92). Conditions: Compound concentration 1000.0 nM.
Series [19] deals with Serine/threonine-protein kinase ICK (Homo sapiens) (UniProt Q9UPZ9). To be noted: Compound concentration 1000.0 nM.
Series [20] addresses Tyrosine-protein kinase BTK (Homo sapiens) (UniProt Q06187). Conditions: Compound concentration 1000.0 nM.
Series [21] concerns the target Adrenergic receptor alpha-1 (Homo sapiens) (UniProt P35348+P25100+P35368). The series is described as follows: alpha 1 (non- selective) CEREP ligand profiling. To be noted: Compound concentration 10.0 uM. Format: protein assay.
Series [22] has as its target MAP kinase-interacting serine/threonine-protein kinase 2 (Homo sapiens) (UniProt Q9HBH9). To be noted: Compound concentration 1000.0 nM.
The target in series [23] is Tyrosine-protein kinase JAK1 (Homo sapiens) (UniProt P23458). Conditions: Compound concentration 1000.0 nM.
Series [24] has as its target Acetylcholinesterase (Homo sapiens) (UniProt P22303). The series is described as follows: Acetylcholinesterase (h) CEREP ligand profiling. Conditions: Compound concentration 10.0 uM.
Series [25] in a line: Glycine (strychnine-insensitive) CEREP ligand profiling. Conditions: Compound concentration 10.0 uM.
Series [26] addresses Interleukin-1 receptor-associated kinase 4 (Homo sapiens) (UniProt Q9NWZ3). To be noted: Compound concentration 1000.0 nM.
For series [27], the target named is Kappa-type opioid receptor (Homo sapiens) (UniProt P41145). The series is described as follows: kappa (KOP) CEREP ligand profiling. To be noted: Compound concentration 10.0 uM.
In series [28] the test system is Tyrosine-protein kinase ABL1 (Homo sapiens), P00519 [T315I]. To be noted: Compound concentration 1000.0 nM.
Series [29] addresses Mitogen-activated protein kinase 10 (Homo sapiens) (UniProt P53779). To be noted: Compound concentration 1000.0 nM.
Series [30] has as its target Mitogen-activated protein kinase kinase kinase kinase 5 (Homo sapiens) (UniProt Q9Y4K4). Conditions: Compound concentration 1000.0 nM.
Series [31] deals with CYP2C19 (Homo sapiens, UniProt P33261). The series is described as follows: CYP2C19 inhibition CEREP ligand profiling. To be noted: compound concentration 10 uM.
For series [32], the target named is Mitogen-activated protein kinase 8 (Homo sapiens) (UniProt P45983). Conditions: Compound concentration 1000.0 nM.
Series [33] addresses Thromboxane A2 receptor (Homo sapiens, UniProt P21731). The series is described as follows: Binding assay (TBXA2R).
Series [34] deals with NUAK family SNF1-like kinase 1 (Homo sapiens) (UniProt O60285). Conditions: Compound concentration 1000.0 nM.
Series [35] deals with Muscarinic acetylcholine receptor M3 (Homo sapiens) (UniProt P20309). The series is described as follows: M3 (h) CEREP ligand profiling. Conditions: Compound concentration 10.0 uM.
The target in series [36] is Mitogen-activated protein kinase kinase kinase 4 (Homo sapiens) (UniProt Q9Y6R4). Conditions: Compound concentration 1000.0 nM.
The target in series [37] is Casein kinase I isoform epsilon (Homo sapiens) (UniProt P49674). To be noted: Compound concentration 1000.0 nM.
Series [38] is filed under the species Rattus norvegicus. To be noted: Compound concentration 10.0 uM.

Mitogen-activated protein kinase kinase kinase kinase 5 (Homo sapiens), sequence (Q9Y4K4 whole entry, looked up): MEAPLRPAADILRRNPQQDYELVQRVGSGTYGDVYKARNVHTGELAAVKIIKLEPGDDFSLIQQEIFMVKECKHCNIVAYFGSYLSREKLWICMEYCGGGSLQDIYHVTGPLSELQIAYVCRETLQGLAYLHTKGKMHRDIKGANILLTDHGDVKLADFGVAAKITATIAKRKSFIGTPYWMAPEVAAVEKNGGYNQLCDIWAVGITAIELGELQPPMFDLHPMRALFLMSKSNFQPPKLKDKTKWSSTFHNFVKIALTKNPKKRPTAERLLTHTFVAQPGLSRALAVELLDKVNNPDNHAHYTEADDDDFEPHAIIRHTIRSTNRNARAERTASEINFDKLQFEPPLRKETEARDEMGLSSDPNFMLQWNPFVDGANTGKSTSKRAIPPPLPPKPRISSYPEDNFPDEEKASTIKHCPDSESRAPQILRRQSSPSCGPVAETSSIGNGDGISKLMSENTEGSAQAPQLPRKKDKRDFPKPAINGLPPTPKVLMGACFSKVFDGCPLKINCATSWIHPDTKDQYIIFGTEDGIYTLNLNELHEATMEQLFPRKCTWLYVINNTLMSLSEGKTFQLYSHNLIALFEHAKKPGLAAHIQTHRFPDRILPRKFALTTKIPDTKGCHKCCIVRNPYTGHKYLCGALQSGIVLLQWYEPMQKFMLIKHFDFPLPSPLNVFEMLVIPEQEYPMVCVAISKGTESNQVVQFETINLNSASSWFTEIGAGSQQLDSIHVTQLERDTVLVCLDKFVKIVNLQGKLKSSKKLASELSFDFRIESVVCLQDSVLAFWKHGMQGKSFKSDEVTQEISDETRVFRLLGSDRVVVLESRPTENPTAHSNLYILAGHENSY
Mitogen-activated protein kinase kinase kinase 2 (Homo sapiens), sequence (Q9Y2U5 whole entry): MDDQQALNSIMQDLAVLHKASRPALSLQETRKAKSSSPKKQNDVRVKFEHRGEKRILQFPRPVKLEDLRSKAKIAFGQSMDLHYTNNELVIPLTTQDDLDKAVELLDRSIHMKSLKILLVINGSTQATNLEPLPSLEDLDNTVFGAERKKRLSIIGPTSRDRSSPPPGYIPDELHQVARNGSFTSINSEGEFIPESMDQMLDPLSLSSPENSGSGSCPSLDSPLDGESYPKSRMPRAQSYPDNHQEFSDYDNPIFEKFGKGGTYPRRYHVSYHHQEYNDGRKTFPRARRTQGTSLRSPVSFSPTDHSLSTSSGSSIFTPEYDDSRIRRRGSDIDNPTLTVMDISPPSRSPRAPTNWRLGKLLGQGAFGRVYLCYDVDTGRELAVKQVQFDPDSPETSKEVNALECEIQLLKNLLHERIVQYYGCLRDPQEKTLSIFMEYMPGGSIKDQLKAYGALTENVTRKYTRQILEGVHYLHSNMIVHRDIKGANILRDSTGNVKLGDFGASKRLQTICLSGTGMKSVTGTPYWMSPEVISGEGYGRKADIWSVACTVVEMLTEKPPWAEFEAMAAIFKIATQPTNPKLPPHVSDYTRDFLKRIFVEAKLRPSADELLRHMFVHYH
Mitogen-activated protein kinase 10 (Homo sapiens), sequence (P53779 whole entry): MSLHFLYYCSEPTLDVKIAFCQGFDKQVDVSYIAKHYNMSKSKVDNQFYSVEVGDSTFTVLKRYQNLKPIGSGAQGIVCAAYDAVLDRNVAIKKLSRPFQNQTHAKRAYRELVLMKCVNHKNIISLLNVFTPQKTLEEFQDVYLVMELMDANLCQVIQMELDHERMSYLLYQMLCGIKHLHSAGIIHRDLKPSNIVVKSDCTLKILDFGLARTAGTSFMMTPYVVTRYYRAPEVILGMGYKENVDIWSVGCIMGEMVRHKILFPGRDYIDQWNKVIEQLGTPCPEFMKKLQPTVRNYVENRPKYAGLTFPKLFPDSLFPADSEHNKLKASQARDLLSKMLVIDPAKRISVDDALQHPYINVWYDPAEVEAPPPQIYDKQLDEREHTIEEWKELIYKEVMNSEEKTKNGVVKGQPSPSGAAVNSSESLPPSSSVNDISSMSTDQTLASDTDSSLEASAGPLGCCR
5-hydroxytryptamine receptor 1B (Homo sapiens), sequence (P28222 whole entry): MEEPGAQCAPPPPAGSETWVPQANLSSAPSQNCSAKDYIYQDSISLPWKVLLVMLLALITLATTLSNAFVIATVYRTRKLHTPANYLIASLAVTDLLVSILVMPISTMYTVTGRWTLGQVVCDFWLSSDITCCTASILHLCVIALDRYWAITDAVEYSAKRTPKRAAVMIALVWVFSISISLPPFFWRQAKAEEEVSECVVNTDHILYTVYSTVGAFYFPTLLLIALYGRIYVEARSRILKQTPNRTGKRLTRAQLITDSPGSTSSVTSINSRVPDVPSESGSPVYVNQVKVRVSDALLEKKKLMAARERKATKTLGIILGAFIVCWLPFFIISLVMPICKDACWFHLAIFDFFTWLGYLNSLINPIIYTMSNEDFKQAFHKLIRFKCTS
Muscarinic acetylcholine receptor M3 (Homo sapiens), sequence (P20309 whole entry, looked up): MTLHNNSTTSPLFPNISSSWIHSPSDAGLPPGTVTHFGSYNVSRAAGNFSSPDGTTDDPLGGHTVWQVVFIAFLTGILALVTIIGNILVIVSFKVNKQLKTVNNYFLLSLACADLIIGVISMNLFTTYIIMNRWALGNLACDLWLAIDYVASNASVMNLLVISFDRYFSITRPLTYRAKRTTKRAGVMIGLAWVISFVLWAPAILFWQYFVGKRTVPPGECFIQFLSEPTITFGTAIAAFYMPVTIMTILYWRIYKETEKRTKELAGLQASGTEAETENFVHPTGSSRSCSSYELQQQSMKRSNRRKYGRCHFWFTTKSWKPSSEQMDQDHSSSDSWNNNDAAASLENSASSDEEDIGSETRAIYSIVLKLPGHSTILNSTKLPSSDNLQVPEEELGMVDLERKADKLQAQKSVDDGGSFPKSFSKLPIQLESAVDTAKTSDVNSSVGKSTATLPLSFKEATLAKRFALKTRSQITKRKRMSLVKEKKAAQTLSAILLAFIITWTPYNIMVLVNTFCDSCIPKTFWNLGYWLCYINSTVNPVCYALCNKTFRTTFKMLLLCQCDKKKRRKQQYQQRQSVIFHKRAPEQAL
Protein-tyrosine kinase 6 (Homo sapiens), sequence (Q13882 whole entry, looked up): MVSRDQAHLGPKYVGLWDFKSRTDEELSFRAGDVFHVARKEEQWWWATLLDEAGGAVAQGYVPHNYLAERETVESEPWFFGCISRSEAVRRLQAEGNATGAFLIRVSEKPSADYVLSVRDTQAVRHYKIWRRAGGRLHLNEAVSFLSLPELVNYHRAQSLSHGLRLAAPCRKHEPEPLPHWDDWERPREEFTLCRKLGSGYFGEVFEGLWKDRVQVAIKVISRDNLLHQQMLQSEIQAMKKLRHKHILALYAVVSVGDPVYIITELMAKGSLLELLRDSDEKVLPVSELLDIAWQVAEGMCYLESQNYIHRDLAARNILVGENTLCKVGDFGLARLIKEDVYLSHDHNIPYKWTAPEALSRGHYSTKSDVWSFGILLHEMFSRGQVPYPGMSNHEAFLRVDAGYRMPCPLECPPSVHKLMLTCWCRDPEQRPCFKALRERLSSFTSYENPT
Serine/threonine-protein kinase WNK4 (Homo sapiens), sequence (Q96J92 whole entry): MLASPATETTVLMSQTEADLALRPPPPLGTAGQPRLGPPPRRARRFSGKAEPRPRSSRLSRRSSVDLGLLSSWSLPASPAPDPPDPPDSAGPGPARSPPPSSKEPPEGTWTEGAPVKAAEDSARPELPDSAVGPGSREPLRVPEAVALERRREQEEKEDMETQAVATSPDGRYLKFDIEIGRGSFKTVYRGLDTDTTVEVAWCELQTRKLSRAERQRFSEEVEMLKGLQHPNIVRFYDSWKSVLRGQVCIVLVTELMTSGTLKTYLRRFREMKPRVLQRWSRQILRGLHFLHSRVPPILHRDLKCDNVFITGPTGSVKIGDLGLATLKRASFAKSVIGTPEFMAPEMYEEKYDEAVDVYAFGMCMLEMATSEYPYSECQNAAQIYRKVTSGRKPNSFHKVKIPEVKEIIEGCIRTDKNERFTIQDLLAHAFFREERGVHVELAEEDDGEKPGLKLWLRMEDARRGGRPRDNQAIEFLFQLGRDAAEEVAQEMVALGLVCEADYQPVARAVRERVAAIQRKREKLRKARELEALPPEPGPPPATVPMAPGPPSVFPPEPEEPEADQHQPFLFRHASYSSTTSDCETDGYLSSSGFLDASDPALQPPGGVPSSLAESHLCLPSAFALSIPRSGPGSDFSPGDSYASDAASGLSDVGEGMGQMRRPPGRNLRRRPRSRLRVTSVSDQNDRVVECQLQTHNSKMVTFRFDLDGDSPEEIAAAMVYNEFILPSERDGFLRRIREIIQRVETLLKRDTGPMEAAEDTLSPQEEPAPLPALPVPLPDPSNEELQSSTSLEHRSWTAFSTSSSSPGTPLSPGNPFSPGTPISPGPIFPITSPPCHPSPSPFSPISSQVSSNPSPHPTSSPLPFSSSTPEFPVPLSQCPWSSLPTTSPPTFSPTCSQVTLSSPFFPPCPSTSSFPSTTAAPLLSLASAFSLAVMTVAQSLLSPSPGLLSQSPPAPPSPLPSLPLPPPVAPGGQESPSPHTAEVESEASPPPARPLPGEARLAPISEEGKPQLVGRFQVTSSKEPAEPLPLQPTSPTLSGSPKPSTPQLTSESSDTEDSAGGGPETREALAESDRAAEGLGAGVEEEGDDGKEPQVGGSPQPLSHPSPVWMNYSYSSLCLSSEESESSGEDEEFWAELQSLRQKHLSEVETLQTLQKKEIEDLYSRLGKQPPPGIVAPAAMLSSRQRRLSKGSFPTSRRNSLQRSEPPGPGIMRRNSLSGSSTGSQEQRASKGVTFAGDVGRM
Casein kinase I isoform epsilon (Homo sapiens), sequence (P49674 whole entry, looked up, canonical isoform): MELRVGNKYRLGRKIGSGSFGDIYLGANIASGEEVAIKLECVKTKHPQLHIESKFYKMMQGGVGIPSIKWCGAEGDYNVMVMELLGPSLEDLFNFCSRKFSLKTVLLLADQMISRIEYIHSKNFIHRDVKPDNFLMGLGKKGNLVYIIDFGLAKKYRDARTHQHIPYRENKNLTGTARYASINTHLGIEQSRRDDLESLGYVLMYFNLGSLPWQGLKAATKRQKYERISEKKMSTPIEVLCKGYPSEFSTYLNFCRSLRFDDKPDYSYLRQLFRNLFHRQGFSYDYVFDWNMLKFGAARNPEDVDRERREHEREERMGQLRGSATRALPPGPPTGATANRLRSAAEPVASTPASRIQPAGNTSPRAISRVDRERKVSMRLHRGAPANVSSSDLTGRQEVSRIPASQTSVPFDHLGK

Regarding `COc1ccc2cc(OCC3(C(=O)O)CN(C(=O)c4ccc(F)cc4)C3)ccc2c1` [PF-04418948], the inhibition in series [1] is -2%; in [2] it was 14%; in [5], -7%; in [7], 19%; in [13], 1%; in [16], -1.29%. Moreover, the inhibition was 9% in [21]; 45% in series [24]; 11% in [25]; 46% in series [27]; 1% in [35]. Moreover, the inhibition at 10 µM in series [3] is reported as -3% (not active); in [14] it was 3% (not active); in series [17] it was 41% (not active); in [31] it was 5% (not active). For the same molecule, the residual activity in series [4] is 72%; in [6] it was 90%; in [8] it was 91%; in series [9], 99%; in [10], 96%; in series [11], 97%. Moreover, the residual activity was 90% in series [12]; 71% in series [15]; 79% in series [18]; 78% in [19]; 84% in series [20]; 96% in series [22]. Besides, the residual activity in [23] was 93%; in series [26] it was 87%; in series [28] it was 84%; in [29], 85%; in series [30], 86%; in series [32], 76%. Further, the residual activity is 94% in series [34], 65% in series [36] and 94% in series [37]. In addition, the Ki in series [33] was > 10 µM (not active).

Turning to `O=C(c1ccc(F)cc1)N1CC(COc2ccc(Br)cc2)(C(=O)O)C1` [PF-04475866], the inhibition in series [38] is 16.3%.
